The subject of this test is Rattus norvegicus. As to the kind of experiment: Reduction in incidence of 600 mg/kg, sc ciprofloxacin-induced cartilage lesions in vitamin E-enriched diet fed immature Wistar rat after 10 days. The arrangement: dose 600 mg/kg; scale not given: the % may be the effect or the level left. It counts as functional, organism-based. The note with it: at 600 mg/kg.

The results in this text go back to ChEMBL document CHEMBL1142095, “Diminished ciprofloxacin-induced chondrotoxicity by supplementation with magnesium and vitamin E in immature rats” (Antimicrob Agents Chemother, 2007).

Substance VITAMIN E gave an Activity of 41%.
